From US20230391772A1, “METHODS AND COMPOSITIONS FOR TARGETED PROTEIN DEGRADATION” (Ranok Therapeutics (Hangzhou) Co. Ltd., priority 2020, published 2023)
pEC50, pIC50: −log10 of the molar value.

Legend:
[1] = biological target: T1, HSP90a protein (Homo sapiens, UniProt P07900); assay: HSP90α-binding fluorescent polarization (FP) assay, BODIPY-labeled RNK04010 probe; conditions: FP competition with RNK04010 (BODIPY-labeled), 5 nM, 300 min at 25° C.
T1 construct: purchased BPS Bioscience 50298
Summary of the method: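 Compound dilutions (20 μM to 5.2 nM, 2.5-fold) are combined with 5 nM final labeled probe, and HSP90a N-terminal protein is added last. Plates are shaken briefly and held at 25° C for 120 min (FITC-geldanamycin) or 300 min (BODIPY-RNK04010), then FP is measured.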

[2] = tested on: NCI-H358 human non-small cell lung cancer; assay: NCI-H358 CCK-8 proliferation assay; assay type: cell-based; conditions: NCI-H358 cells, 72 hr
Summary of the method: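 Three KRAS(G12C) lines are used, MIA PaCa-2 at two mutant copies and the NSCLC lines NCI-H358 and NCI-H23 at one. Each compound is titrated 3-fold from 20 μM to 1.02 nM, and proliferation is scored by CCK-8.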

Row | Structure (SMILES) | pIC50 [1] | pEC50 [2]
1 | C=CC(=O)N1CCN(c2nc(NCCC(=O)N3CCN(Cc4ccc5c(c4F)CN(C(=O)c4ccc(O)cc4O)C5)CC3)nc3c2CCN(c2cc(O)cc4ccccc24)C3)CC1 [Compound 105, 1-(4-(2-((3-(4-((2-(2,4-dihydroxybenzoyl)-4-fluoroisoindolin-5-yl)methyl)piperazin-1-yl)-3-oxopropyl)amino)-7-(3-hydroxynaphthalen-1-yl)-5,6,7,8-tetrahydropyrido[3,4-d]pyrimidin-4-yl)piperazin-1-yl)prop-2-en-1-one, trifluoroacetic acid] | < 6.00 | < 6.00
2 | C=CC(=O)N1CCN(c2nc(NCCC(=O)NCc3ccc(-n4c(O)nnc4-c4ccc(O)cc4O)cc3)nc3c2CCN(c2cccc4ccccc24)C3)C[C@H]1CC#N [Compound 81] | < 6.00 | < 6.00
3 | C=CC(=O)N1CCN(c2nc(NCCC(=O)N3CCC(CN4CCC(Cc5ccc(-n6c(O)nnc6-c6cc(C(C)C)c(O)cc6O)cc5)CC4)CC3)nc3c2CCN(c2cc(O)cc4ccccc24)C3)CC1 [Compound 12, 1-(4-(2-((3-(4-((4-(4-(3-(2,4-dihydroxy-5-isopropylphenyl)-5-hydroxy-4H-1,2,4-triazol-4-yl)benzyl)piperidin-1-yl)methyl)piperidin-1-yl)-3-oxopropyl)amino)-7-(3-hydroxynaphthalen-1-yl)-5,6,7,8-tetrahydropyrido[3,4-d]pyrimidin-4-yl)piperazin-1-yl)prop-2-en-1-one, trifluoroacetic acid] | 6.00 to 7.00 | < 6.00
4 | CCC(=O)N1CCN(c2nc(NCCC(=O)N3CCN(Cc4ccc5c(c4)CN(C(=O)c4cc(C(C)C)c(O)cc4O)C5)CC3)nc3c2CCN(c2cc(O)cc4ccccc24)C3)CC1 [Compound 57, 1-(4-((2-(2,4-dihydroxy-5-isopropylbenzoyl)isoindolin-5-yl)methyl)piperazin-1-yl)-3-((7-(3-hydroxynaphthalen-1-yl)-4-(4-propionylpiperazin-1-yl)-5,6,7,8-tetrahydropyrido[3,4-d]pyrimidin-2-yl)amino)propan-1-one, trifluoroacetic acid] | 6.00 to 7.00 | < 6.00
5 | CCc1cc(-c2nnc(C(=O)NCC(F)(F)F)n2-c2ccc(CN(C)Cc3ccc(CC4CCN(C(=O)CCNc5nc6c(c(N7CCN(C(C)=O)CC7)n5)CCN(c5cc(O)cc7ccccc57)C6)CC4)cc3)cc2)c(O)cc1O [Compound 113, 4-(4-(((4-((1-(3-((4-(4-acetylpiperazin-1-yl)-7-(3-hydroxynaphthalen-1-yl)-5,6,7,8-tetrahydropyrido[3,4-d]pyrimidin-2-yl)amino)propanoyl)piperidin-4-yl)methyl)benzyl)(methyl)amino)methyl)phenyl)-5-(5-ethyl-2,4-dihydroxyphenyl)-N-(2,2,2-trifluoroethyl)-4H-1,2,4-triazole-3-carboxamide, trifluoroacetic acid] | 6.00 to 7.00 | 6.00 to 7.00
6 | CCC(=O)N1CCN(c2nc(NCCC(=O)NCc3ccc(-n4c(O)nnc4-c4cc(C(C)C)c(O)cc4O)cc3F)nc3c2CCN(c2cc(O)cc4ccccc24)C3)CC1 [Compound 33, N-(4-(3-(2,4-dihydroxy-5-isopropylphenyl)-5-hydroxy-4H-1,2,4-triazol-4-yl)-2-fluorobenzyl)-3-((7-(3-hydroxynaphthalen-1-yl)-4-(4-propionylpiperazin-1-yl)-5,6,7,8-tetrahydropyrido[3,4-d]pyrimidin-2-yl)amino)propanamide, trifluoroacetic acid] | 6.00 to 7.00 | < 6.00
7 | CC(=O)N1CCN(c2nc(NCCC(=O)N3CCC(Cc4ccc(CN(C)Cc5ccc(-n6c(C(=O)NCC(F)(F)F)nnc6-c6cc(C)c(O)cc6O)cc5)cc4)CC3)nc3c2CCN(c2cccc4ccccc24)C3)C[C@H]1CC#N [Compound 122, (R)-4-(4-(((4-((1-(3-((4-(4-acetyl-3-(cyanomethyl)piperazin-1-yl)-7-(naphthalen-1-yl)-5,6,7,8-tetrahydropyrido[3,4-d]pyrimidin-2-yl)amino)propanoyl)piperidin-4-yl)methyl)benzyl)(methyl)amino)methyl)phenyl)-5-(2,4-dihydroxy-5-methylphenyl)-N-(2,2,2-trifluoroethyl)-4H-1,2,4-triazole-3-carboxamide, trifluoroacetic acid] | < 6.00 | < 6.00
8 | C=CC(=O)N1CCN(c2nc(NCCC(=O)N3CCC(CN4CCN(Cc5ccc(-n6c(O)nnc6-c6ccc(O)cc6O)cc5)CC4)CC3)nc3c2CCN(c2cc(O)cc4ccccc24)C3)CC1 [Compound 13, 1-(4-(2-((3-(4-((4-(4-(3-(2,4-dihydroxyphenyl)-5-hydroxy-4H-1,2,4-triazol-4-yl)benzyl)piperazin-1-yl)methyl)piperidin-1-yl)-3-oxopropyl)amino)-7-(3-hydroxynaphthalen-1-yl)-5,6,7,8-tetrahydropyrido[3,4-d]pyrimidin-4-yl)piperazin-1-yl)prop-2-en-1-one, trifluoroacetic acid] | < 6.00 | < 6.00
9 | CCC(=O)N1CCN(c2nc(NCCC(=O)N3CCC(Cc4ccc(-n5c(O)nnc5-c5cc(C(C)C)c(O)cc5O)cc4)CC3)nc3c2CCN(c2cc(O)cc4ccccc24)C3)CC1 [Compound 38, 1-(4-(4-(3-(2,4-dihydroxy-5-isopropylphenyl)-5-hydroxy-4H-1,2,4-triazol-4-yl)benzyl)piperidin-1-yl)-3-((7-(3-hydroxynaphthalen-1-yl)-4-(4-propionylpiperazin-1-yl)-5,6,7,8-tetrahydropyrido[3,4-d]pyrimidin-2-yl)amino)propan-1-one, trifluoroacetic acid] | 6.00 to 7.00 | < 6.00
10 | CC(=O)N1CCN(c2nc(NCCC(=O)NCc3ccc(-n4c(O)nnc4-c4cc(C(C)C)c(O)cc4O)cc3C(F)(F)F)nc3c2CCN(c2cc(O)cc4ccccc24)C3)CC1 [Compound 42, 3-((4-(4-acetylpiperazin-1-yl)-7-(3-hydroxynaphthalen-1-yl)-5,6,7,8-tetrahydropyrido[3,4-d]pyrimidin-2-yl)amino)-N-(4-(3-(2,4-dihydroxy-5-isopropylphenyl)-5-hydroxy-4H-1,2,4-triazol-4-yl)-2-(trifluoromethyl)benzyl)propanamide, trifluoroacetic acid] | 6.00 to 7.00 | < 6.00
11 | CCC(=O)N1CCN(c2nc(NCCC(=O)NCc3ccc(-n4c(O)nnc4-c4cc(C(C)C)c(O)cc4O)cc3C(F)(F)F)nc3c2CCN(c2cc(O)cc4ccccc24)C3)CC1 [Compound 46, N-(4-(3-(2,4-dihydroxy-5-isopropylphenyl)-5-hydroxy-4H-1,2,4-triazol-4-yl)-2-(trifluoromethyl)benzyl)-3-((7-(3-hydroxynaphthalen-1-yl)-4-(4-propionylpiperazin-1-yl)-5,6,7,8-tetrahydropyrido[3,4-d]pyrimidin-2-yl)amino)propenamide] | 6.00 to 7.00 | < 6.00
12 | C=CC(=O)N1CCN(C2CN(c3cc(O)cc4ccccc34)Cc3nc(NCCC(=O)NCCOCCOCCOc4ccc(-n5c(O)nnc5-c5cc(C(C)C)c(O)cc5O)cc4)ncc32)CC1 (stereo not drawn) [Compound 9, 3-((5-(4-acryloylpiperazin-1-yl)-7-(3-hydroxynaphthalen-1-yl)-5,6,7,8-tetrahydropyrido[3,4-d]pyrimidin-2-yl)amino)-N-(2-(2-(2-(4-(3-(2,4-dihydroxy-5-isopropylphenyl)-5-hydroxy-4H-1,2,4-triazol-4-yl)phenoxy)ethoxy)ethoxy)ethyl)propanamide, trifluoroacetic acid] | 6.00 to 7.00 | < 6.00
13 | C=CC(=O)N1CCN(c2nc(NCCC(=O)N3CCN(c4ccc(-n5c(O)nnc5-c5cc(C(C)C)c(O)cc5O)cc4)CC3)nc3c2CCN(c2cc(O)cc4ccccc24)C3)CC1 [Compound 2, 1-(4-(2-((3-(4-(4-(3-(2,4-dihydroxy-5-isopropylphenyl)-5-hydroxy-4H-1,2,4-triazol-4-yl)phenyl)piperazin-1-yl)-3-oxopropyl)amino)-7-(3-hydroxynaphthalen-1-yl)-5,6,7,8-tetrahydropyrido[3,4-d]pyrimidin-4-yl)piperazin-1-yl)prop-2-en-1-one, trifluoroacetic acid] | 6.00 to 7.00 | < 6.00
14 | CCCc1cc(-c2nnc(O)n2-c2ccc(CN3CCN(CC4CCN(C(=O)CCNc5nc6c(c(N7CCN(C(=O)CC)CC7)n5)CCN(c5cc(O)cc7ccccc57)C6)CC4)CC3)cc2)c(O)cc1O [Compound 52, 1-(4-((4-(4-(3-(2,4-dihydroxy-5-propylphenyl)-5-hydroxy-4H-1,2,4-triazol-4-yl)benzyl)piperazin-1-yl)methyl)piperidin-1-yl)-3-((7-(3-hydroxynaphthalen-1-yl)-4-(4-propionylpiperazin-1-yl)-5,6,7,8-tetrahydropyrido[3,4-d]pyrimidin-2-yl)amino)propan-1-one] | 6.00 to 7.00 | < 6.00
15 | C=CC(=O)N1CCN(c2nc(NCCC(=O)NCCOCCOc3ccc(-n4c(O)nnc4-c4cc(CC)c(O)cc4O)cc3)nc3c2CCN(c2cc(O)cc4ccccc24)C3)CC1 [Compound 6, 3-((4-(4-acryloylpiperazin-1-yl)-7-(3-hydroxynaphthalen-1-yl)-5,6,7,8-tetrahydropyrido[3,4-d]pyrimidin-2-yl)amino)-N-(2-(2-(4-(3-(5-ethyl-2,4-dihydroxyphenyl)-5-hydroxy-4H-1,2,4-triazol-4-yl)phenoxy)ethoxy)ethyl)propanamide, trifluoroacetic acid] | < 6.00 | < 6.00
